Source: paper PMC10250618, “Synthesis, structure-activity relationships and biological evaluation of benzimidazole derived sulfonylurea analogues as a new class of antagonists of P2Y1 receptor” (Frontiers in Pharmacology, 2023)
Like-named read-outs stand apart in the source and are kept apart here.

Legend:
t-P2Y1 = biological target: T1, t-P2Y1 (Meleagris gallopavo, UniProt P49652); assay: Calcium mobilization assay, t-P2Y1 transfected 1321N1 astrocytoma cells; format: cell-based; conditions: 100 μM ADP; for IC50: Ca2+ mobilization inhibition, transfected 1321N1 cells, read-out: IC50 ± SEM t-P2Y1; for inhibition at 100 µM: 1321-N1, final conc of 100 μM
T1 construct: host or cells: human 1321N1 astrocytoma cells, stably transfected
T1 sequence (P49652 whole entry): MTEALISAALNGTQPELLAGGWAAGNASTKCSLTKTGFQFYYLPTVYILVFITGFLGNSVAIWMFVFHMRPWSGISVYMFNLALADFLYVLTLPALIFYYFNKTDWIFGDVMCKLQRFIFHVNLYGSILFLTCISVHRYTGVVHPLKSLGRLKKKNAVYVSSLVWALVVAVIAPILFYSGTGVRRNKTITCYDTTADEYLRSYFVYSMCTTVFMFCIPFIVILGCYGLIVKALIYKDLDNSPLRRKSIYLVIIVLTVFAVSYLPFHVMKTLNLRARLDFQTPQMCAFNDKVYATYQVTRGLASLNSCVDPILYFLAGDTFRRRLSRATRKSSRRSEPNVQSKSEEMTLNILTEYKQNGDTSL
Procedure: (§1) Dr. Gary A. Weisman provided human-1321N1 astrocytoma cells that had been transfected by the tP2Y1R, hP2Y2R, hP2Y4R, and rP2Y6R and untransfected 1321N1 astrocytoma cells (University of Missouri Mo., Bond Life Science Center). The DMEM Dulbecco’s Modified Eagle -Medium (Gibco) was added in flasks to cultivate the cell line. 10% of the Fetal bovine serum was also added to the media together with 500 μg/mL of Geneticin (G418) and 1% of the Pen/Strep. The cells in T-75 flask were then cultured and incubated in a CO2 incubator which was maintained at (5%) and 37°C temperature until 90% of the cells were confluent. Throughout the experiment, cells were periodically checked for the confluency and strictly watched for the microbial contamination.
(§2) The FLUOstar Galaxy (BMG LABTECH GmbH, Ortenberg, Germany) microplate reader with two injectors was used to measure the Ca^2+ fluorescence of synthetic compounds. For this assay, 1321N1 transfected cells (t-P2Y1, h-P2Y2, h-P2Y4, and r-P2Y6) were cultured in T-75 flask. When cells reached the confluency of 80%–90%, they were washed with PBS and then Trypsin was added. After trypsinization for 3 min, 20,000 cells/well were allowed to seed in a black wall and 96 well clear bottom plate which was coated with Poly-D-Lysine and allowed to incubate for 24 h in 37°C, 5% CO2 incubator. After incubation, 200 μL culture media was changed with 100 μL HBSS containing Fura-2 AM which is calcium chelating dye and allowed the plate to incubate for 45 min in dark at temp of 37°C in incubator which is maintained with carbon dioxide (5% CO2). After incubation for 45 min, synthesized molecules were added to HBSS washed cells in each well of 96 well plate and re-incubated for 30 min at 37°C. In next step, injection of the endogenous ligand such as ADP through the injector was followed by excitation and emission measurements of Fura-2 AM at 380/520 nm and 340/520. Final volume of the assay per well 200 μL. IC50 values were computed for the compounds displaying more than 50% of activity using Prism 5.0 software (Graph Pad., Inc., San Diego. California, United States) by using analysis i.e., nonlinear regression ([Kassack et al., 2002]; [Ullmann et al., 2005]).

h-P2Y2 = biological target: T2, h-P2Y2 (Homo sapiens, UniProt P41231); assay: Calcium mobilization assay, h-P2Y2 transfected 1321N1 astrocytoma cells; format: cell-based; conditions: for inhibition at 100 µM: 1321-N1, final conc of 100 μM
T2 construct: host or cells: human 1321N1 astrocytoma cells, stably transfected
T2 sequence (P41231 whole entry): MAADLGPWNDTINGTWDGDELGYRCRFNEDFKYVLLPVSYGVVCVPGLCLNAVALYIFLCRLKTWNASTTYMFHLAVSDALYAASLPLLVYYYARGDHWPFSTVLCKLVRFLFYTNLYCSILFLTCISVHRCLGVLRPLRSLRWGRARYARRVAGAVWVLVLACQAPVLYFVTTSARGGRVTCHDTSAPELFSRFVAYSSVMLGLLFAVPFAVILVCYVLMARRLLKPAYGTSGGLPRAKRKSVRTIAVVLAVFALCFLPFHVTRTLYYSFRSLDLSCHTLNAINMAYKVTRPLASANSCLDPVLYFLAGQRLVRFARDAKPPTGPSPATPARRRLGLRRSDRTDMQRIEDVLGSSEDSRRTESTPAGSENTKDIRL
Procedure: as §1, §2

MTT assay, HeLa = format: cell-based; conditions: human, HeLa cells; at 50 µM; triplicate; read-out: HeLa Cell Line (%cytotoxicity ±SEM)
r-P2Y6 = biological target: T3, r-P2Y6 (Rattus norvegicus, UniProt Q63371); assay: Calcium mobilization assay, r-P2Y6 transfected 1321N1 astrocytoma cells; format: cell-based; conditions: 100 μM of UDP; for IC50: Ca2+ mobilization inhibition, transfected 1321N1 cells, read-out: IC50 ± SEM r-P2Y6; for inhibition at 100 µM: 1321-N1, final conc of 100 μM
T3 construct: host or cells: human 1321N1 astrocytoma cells, stably transfected
T3 sequence (Q63371 whole entry): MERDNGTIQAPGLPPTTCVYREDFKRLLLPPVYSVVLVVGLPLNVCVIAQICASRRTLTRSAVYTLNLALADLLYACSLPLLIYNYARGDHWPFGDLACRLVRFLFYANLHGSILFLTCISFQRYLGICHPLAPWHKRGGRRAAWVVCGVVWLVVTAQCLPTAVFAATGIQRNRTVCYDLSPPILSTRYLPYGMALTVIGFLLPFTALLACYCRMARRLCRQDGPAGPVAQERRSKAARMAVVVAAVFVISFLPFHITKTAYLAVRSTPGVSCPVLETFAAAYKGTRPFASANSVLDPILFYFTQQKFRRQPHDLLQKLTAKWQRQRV
Procedure: as §1, §2

[1] = MTT assay, non-transfected 1321N1 astrocytoma cells; format: cell-based, human; conditions: human, non-transfected 1321N1 astrocytoma cells; at 50 µM; non-transfected astrocytoma 1321N1 cells; triplicate; read-out: H-1321N1 Cell Line (%cytotoxicity ±SEM)
Procedure: A 96-well plate was used to plate 20,000 human 1321N1 astrocytoma cells and allowed for incubation for 24 h at temp of 37°C in CO2 (5%) incubator. Next to this, the prepared culture media was changed to media which was free from FBS, the test compounds were added and the incubation process was repeated. After incubation of 24 h, the serum free media from the wells was discarded, and 100 μL of the reagent i.e., MTT reagent was pipetted. Plate was then additionally incubated at 37°C for 4 h. Utilizing a microplate reader, absorbance was determined at 570 nm and 630 nm for calculation of cell viability (FLUOstarOmega Microplate Reader-BMG LABTECH GmbH, Ortenberg, Germany) ([Sauer et al., 2009]).

MTT assay, HEK-293 = format: cell-based; conditions: human, HEK-293 cells; at 50 µM; triplicate; read-out: HEK-293 Cell Line (%cytotoxicity ±SEM)
h-P2Y4 = biological target: T4, h-P2Y4 (Homo sapiens, UniProt P51582); assay: Calcium mobilization assay, h-P2Y4 transfected 1321N1 astrocytoma cells; format: cell-based; conditions: for inhibition at 100 µM: 1321-N1, final conc of 100 μM, read-out: % Inhibition h-P2Y4
T4 construct: host or cells: human 1321N1 astrocytoma cells, stably transfected
T4 sequence (P51582 whole entry): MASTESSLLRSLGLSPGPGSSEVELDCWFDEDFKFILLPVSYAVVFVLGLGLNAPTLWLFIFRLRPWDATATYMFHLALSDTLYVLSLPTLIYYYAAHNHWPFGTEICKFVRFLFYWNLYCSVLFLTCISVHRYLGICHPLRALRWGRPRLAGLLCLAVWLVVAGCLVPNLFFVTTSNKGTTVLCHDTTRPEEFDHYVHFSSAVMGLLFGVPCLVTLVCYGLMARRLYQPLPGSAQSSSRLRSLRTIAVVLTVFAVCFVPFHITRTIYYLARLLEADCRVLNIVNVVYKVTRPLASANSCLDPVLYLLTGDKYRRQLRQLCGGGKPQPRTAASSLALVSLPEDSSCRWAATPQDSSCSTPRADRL
Procedure: as §1, §2

[2] = Ca2+ mobilization inhibition, transfected 1321N1 cells, 500 μM ATP, read-out: IC50 ± SEM h-P2Y2

IC50 (t-P2Y1) [µM]	melting point [°C]	inhibition at 100 µM (h-P2Y2; 500 μM ATP) [%]	IC50 (r-P2Y6) [µM]	IC50 (h-P2Y4; Ca2+ mobilization inhibition, transfected 1321N1 cells, 500 μM UTP, read-out: IC50 ± SEM h-P2Y4) [µM]	SMILES	cytotoxicity at 24 h, 50 µM (MTT assay, HeLa) [%]	cytotoxicity at 24 h, 50 µM [1] [%]	cytotoxicity at 24 h, 50 µM (MTT assay, HEK-293) [%]	inhibition at 100 µM (h-P2Y4; 500 μM UTP) [%]	IC50 (h-P2Y2; [2]) [µM]	inhibition at 100 µM (t-P2Y1) [%]	inhibition at 100 µM (r-P2Y6) [%]	IC50 (h-P2Y2) [µM]	IC50 (h-P2Y4) [µM]
13.4 ± 0.22	144 to 146	32	25.4 ± 3.1	–	Cc1ccc([N+](=O)[O-])cc1S(=O)(=O)NC(=O)n1c(N)nc2cc(Cl)ccc21 [1j, 2-Amino-5-chloro-N-((2-methyl-5-nitrophenyl)sulfonyl)-1H-benzo [d]imidazole-1-carboxamide]	26.1 ± 0.7	44.3 ± 0.6	38.2 ± 0.4	42	–	–	–	–	–
12.4 ± 1.03	183 to 184	–	8.49 ± 1.23	16.6 ± 1.12	Nc1nc2cc(Cl)ccc2n1C(=O)NS(=O)(=O)c1ccc([N+](=O)[O-])cc1 [1k, 2-Amino-5-chloro-N-((4-nitrophenyl)sulfonyl)-1H-benzo [d]imidazole-1-carboxamide]	21.7 ± 0.9	41.7 ± 0.2	27.2 ± 0.2	–	11.1 ± 0.94	–	–	–	–
5.69 ± 0.23	158 to 160	21	7.06 ± 1.47	–	O=C(NS(=O)(=O)c1ccc(Cl)cc1)n1c(-c2ccccc2)nc2ccccc21 [1n, N-((4-chlorophenyl)sulfonyl)-2-phenyl-1H-benzo [d]imidazole-1-carboxamide]	22.4 ± 0.8	26.5 ± 0.4	38.7 ± 0.3	19	–	–	–	–	–
5.59 ± 0.91	160 to 162	12	16.3 ± 0.83	–	COc1ccc(S(=O)(=O)NC(=O)n2c(Cl)nc3ccccc32)cc1 [1p, 2-Chloro-N-((4-methoxyphenyl)sulfonyl)-1H-benzo [d]imidazole-1-carboxamide]	20.5 ± 0.2	21.2 ± 0.3	24.2 ± 0.7	20	–	–	–	–	–

SMILES	IC50 (t-P2Y1) [µM]	melting point [°C]	inhibition at 100 µM (h-P2Y2; 500 μM ATP) [%]	IC50 (r-P2Y6) [µM]	IC50 (h-P2Y4; Ca2+ mobilization inhibition, transfected 1321N1 cells, 500 μM UTP, read-out: IC50 ± SEM h-P2Y4) [µM]	cytotoxicity at 24 h, 50 µM (MTT assay, HeLa) [%]	cytotoxicity at 24 h, 50 µM [1] [%]	cytotoxicity at 24 h, 50 µM (MTT assay, HEK-293) [%]	inhibition at 100 µM (h-P2Y4; 500 μM UTP) [%]	IC50 (h-P2Y2; [2]) [µM]	inhibition at 100 µM (t-P2Y1) [%]	inhibition at 100 µM (r-P2Y6) [%]	IC50 (h-P2Y2) [µM]	IC50 (h-P2Y4) [µM]
O=C(NS(=O)(=O)c1ccc(-c2ccccc2)cc1)n1c(-c2ccccc2)nc2ccccc21 [1l, N-([1.1′-biphenyl]-4-ylsulfonyl)-2-phenyl-1H-benzo [d]imidazole-1-carboxamide]	–	133 to 135	34	–	–	28.3 ± 1.2	47.2 ± 0.4	21.3 ± 0.6	22	–	27	43	–	–
O=C(NS(=O)(=O)c1ccccc1)n1c(-c2ccccc2)nc2ccccc21 [1m, 2-Phenyl-N-(phenylsulfonyl)-1H-benzo [d]imidazole-1-carboxamide]	–	154 to 156	37	–	–	39.4 ± 1.3	37.9 ± 0.7	33.3 ± 0.3	16	–	29	21	–	–
O=C(NS(=O)(=O)c1ccc([N+](=O)[O-])cc1)n1c(-c2ccccc2)nc2ccccc21 [1o, N-((4-nitrophenyl)sulfonyl)-2-phenyl-1H-benzo [d]imidazole-1-carboxamide]	–	162 to 164	–	–	–	24.3 ± 0.4	24.3 ± 0.8	27.9 ± 0.8	46	18.2 ± 0.77	46	32	–	–
Nc1c(S(=O)(=O)O)cc(Nc2ccc(Nc3nc(Cl)nc(Nc4cccc(S(=O)(=O)O)c4)n3)c(S(=O)(=O)O)c2)c2c1C(=O)c1ccccc1C2=O [Reactive Blue 2, reference compound]	–	–	–	2.8 ± 0.11	–	–	–	–	–	–	–	–	0.57 ± 0.02	8.4 ± 1.2
